Legend:
[1] = in tetrahydrofuran; cited from earlier work
[2] = Stability of P-RFRTs in PBS and at pH 2; format: physicochemical; details: same concentration

zinc hexadecafluoro-phthalocyanine [ZnF16Pc]
ΦΔ [1]: 0.85
Stability in PBS [2]: quickly precipitated out due to its poor solubility

From patent US10022451B2, “Encapsulated agents and methods of making and using thereof” (University of Georgia Research Foundation, Inc., priority 2014, dated 2018)
